The source made the active and inactive calls. No rule for the calls is given here.
Tests used:
[1] = target: T1, hERG (Kv11.1, KCNH2) (Homo sapiens, UniProt Q12809); experiment: in vitro
Description: MMV: Malaria Box compounds were tested for inhibition of the human ether a go-go related gene (hERG), Kv11.1 channel, using IonWorks 384-well patch clamp electrophysiology at 11.1uM (3 independent assay plates up to 12 cells per concentration).

[2] = target: T1, hERG (Kv11.1, KCNH2); experiment: in vitro; remark: listed apart in the source
Description: MMV: Malaria Box compounds were tested for inhibition of the human ether a go-go related gene (hERG), Kv11.1 channel, using IonWorks 384-well patch clamp electrophysiology at 1.1uM (3 independent assay plates up to 12 cells per concentration).

T1 sequence (Q12809 whole entry): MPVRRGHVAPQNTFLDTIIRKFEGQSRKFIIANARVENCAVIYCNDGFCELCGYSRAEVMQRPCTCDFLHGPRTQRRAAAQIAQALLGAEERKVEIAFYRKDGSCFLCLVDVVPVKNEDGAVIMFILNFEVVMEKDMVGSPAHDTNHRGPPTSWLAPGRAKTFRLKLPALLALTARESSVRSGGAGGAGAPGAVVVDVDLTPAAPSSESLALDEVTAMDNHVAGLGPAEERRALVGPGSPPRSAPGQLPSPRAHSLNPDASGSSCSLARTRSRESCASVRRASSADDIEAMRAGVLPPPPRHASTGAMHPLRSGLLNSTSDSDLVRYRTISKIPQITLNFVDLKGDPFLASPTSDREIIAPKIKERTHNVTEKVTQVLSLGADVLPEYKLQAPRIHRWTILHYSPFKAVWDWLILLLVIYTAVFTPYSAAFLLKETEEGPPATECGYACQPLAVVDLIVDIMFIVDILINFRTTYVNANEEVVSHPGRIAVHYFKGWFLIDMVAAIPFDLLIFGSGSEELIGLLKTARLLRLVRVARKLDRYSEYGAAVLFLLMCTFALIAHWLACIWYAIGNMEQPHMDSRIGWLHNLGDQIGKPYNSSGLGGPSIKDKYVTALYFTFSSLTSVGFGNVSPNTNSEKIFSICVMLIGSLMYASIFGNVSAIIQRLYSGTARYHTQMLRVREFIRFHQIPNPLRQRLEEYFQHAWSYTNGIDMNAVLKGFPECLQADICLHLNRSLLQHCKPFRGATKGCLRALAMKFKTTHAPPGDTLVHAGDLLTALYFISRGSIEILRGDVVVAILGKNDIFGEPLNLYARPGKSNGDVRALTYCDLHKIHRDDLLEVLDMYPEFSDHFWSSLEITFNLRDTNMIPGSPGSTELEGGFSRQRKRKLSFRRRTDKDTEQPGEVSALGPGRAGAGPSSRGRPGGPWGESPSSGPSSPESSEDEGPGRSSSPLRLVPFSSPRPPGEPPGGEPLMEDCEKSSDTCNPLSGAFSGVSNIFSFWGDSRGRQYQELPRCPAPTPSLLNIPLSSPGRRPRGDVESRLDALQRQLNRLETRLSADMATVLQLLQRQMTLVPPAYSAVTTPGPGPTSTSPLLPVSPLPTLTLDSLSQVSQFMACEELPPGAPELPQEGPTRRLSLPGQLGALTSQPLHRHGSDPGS

c1ccc(/C2=N/c3ccccc3/N=C(/c3ccccc3)c3ccccc32)cc1
inhibition at 11.1 µM [1]: 3% (inactive)
inhibition at 1.1 µM [2]: 7%

Cc1cc(C)cc(Nc2cc(C)nc3nc(C(F)(F)F)nn23)c1
inhibition at 11.1 µM [1]: 40%
inhibition at 1.1 µM [2]: 20%

CCOC(=O)c1cnc2ccc(CC)cc2c1O
inhibition at 11.1 µM [1]: 12% (inactive)
inhibition at 1.1 µM [2]: 1%

O=C(CCc1ccccc1)c1ccccc1OCC(O)CN1CCCCC1 (stereo unspecified)
inhibition at 11.1 µM [1]: 17% (inactive)
inhibition at 1.1 µM [2]: 1%

Cc1cc(Nc2ccc3ccccc3c2)n2ncnc2n1
inhibition at 11.1 µM [1]: 25% (inactive)
inhibition at 1.1 µM [2]: 9%

O=C(O)C1Cc2c([nH]c3ccccc23)C(c2ccc(Cl)cc2Cl)N1 (stereo unspecified)
inhibition at 11.1 µM [1]: 34%
inhibition at 1.1 µM [2]: -5%

COc1ccc2nc(C)cc(Nc3ccc(Cl)cc3)c2c1
inhibition at 11.1 µM [1]: 111%
inhibition at 1.1 µM [2]: 67%

COc1ccc2nc(C)cc(Nc3cccc(O)c3)c2c1
inhibition at 11.1 µM [1]: 83% (active)
inhibition at 1.1 µM [2]: 32%

COC(=O)c1ccc(C2C3=C(O)CC(c4ccc(F)cc4)CC3=Nc3ccccc3N2C(=O)c2ccccc2)cc1 (stereo unspecified)
inhibition at 11.1 µM [1]: 105%
inhibition at 1.1 µM [2]: 98%

CCOc1cc2c(cc1OCC)C(c1cc(OC)c(O)cc1Cl)NCC2 (stereo unspecified)
inhibition at 11.1 µM [1]: 30%
inhibition at 1.1 µM [2]: 10%

CCOc1ccc(CN2CCN(CC(O)COc3ccc(OCC(O)CN4CCN(Cc5ccc(OCC)cc5)CC4)cc3)CC2)cc1 (stereo unspecified)
inhibition at 11.1 µM [1]: 83%
inhibition at 1.1 µM [2]: 70%

Brc1ccc(Nc2nc3ccccc3nc2Nc2ccc(Br)cc2)cc1
inhibition at 11.1 µM [1]: 2% (inactive)
inhibition at 1.1 µM [2]: 2%

OC(CNC1CCCCC1)Cn1c2ccccc2c2ccccc21 (stereo unspecified)
inhibition at 11.1 µM [1]: 23% (inactive)
inhibition at 1.1 µM [2]: 14%

Cc1ccc(CSCc2ccc(C(=O)NC3CC3)o2)cc1
inhibition at 11.1 µM [1]: 26%
inhibition at 1.1 µM [2]: 2%

Cc1cc(Nc2ccc(OCc3ccccc3)cc2)nc2cc(O)ccc12
inhibition at 11.1 µM [1]: 108% (active)
inhibition at 1.1 µM [2]: -2%

CN1CCN(c2c3c(c(C#N)c4nc5ccccc5n24)CCC3)CC1
inhibition at 11.1 µM [1]: 45%
inhibition at 1.1 µM [2]: 7%

CCOc1ccc2nc(C)cc(Nc3ccc(N(C)C)cc3)c2c1
inhibition at 11.1 µM [1]: 3% (inactive)
inhibition at 1.1 µM [2]: 4%

COc1ccc(Nc2cc(C)nc(NCc3ccccc3)n2)cc1
inhibition at 11.1 µM [1]: 67% (active)
inhibition at 1.1 µM [2]: > 5%

COc1cc(-c2nc(-c3ccc(Sc4ccccc4)cc3)c(-c3ccccc3)[nH]2)cc(OC)c1O
inhibition at 11.1 µM [1]: 13% (inactive)
inhibition at 1.1 µM [2]: 15%

COc1ccc2c(c1)OC(O)(C(F)(F)C(F)(F)F)CC2=O (stereo unspecified)
inhibition at 11.1 µM [1]: 25%
inhibition at 1.1 µM [2]: 4%

Cc1ccc(-c2cc3nc4c(c(O)n3n2)CCCC4)cc1
inhibition at 11.1 µM [1]: 11% (inactive)
inhibition at 1.1 µM [2]: -4%

O=C1c2ccc3c4c(ccc(c24)C(=O)N1CCCCO)C(=O)N(CCCCO)C3=O
inhibition at 11.1 µM [1]: 37%
inhibition at 1.1 µM [2]: 3%

CC(=O)NCCc1nc2ccccc2n1Cc1ccc(C(C)C)cc1
inhibition at 11.1 µM [1]: 26%
inhibition at 1.1 µM [2]: 6%

O=C(Nc1ccc(-c2nc3cc(NC(=O)c4ccc(Cl)cc4)ccc3[nH]2)cc1)c1ccc(Cl)cc1
inhibition at 11.1 µM [1]: 28%
inhibition at 1.1 µM [2]: -9%

COc1nc(Nc2ccc(C(C)C)cc2)nc(OC)n1
inhibition at 11.1 µM [1]: 17% (inactive)
inhibition at 1.1 µM [2]: -2%

Cc1ccccc1OCCSc1nc2ccc(NC(=O)c3cccs3)cc2s1
inhibition at 11.1 µM [1]: 24% (inactive)
inhibition at 1.1 µM [2]: 12%

CC1CCN(Cc2c(O)ccc3cc(-c4nc5ccccc5s4)c(=O)oc23)CC1
inhibition at 11.1 µM [1]: 10% (inactive)
inhibition at 1.1 µM [2]: -3%

c1ccc2cc3c(Nc4ccc(N5CCOCC5)cc4)ccnc3cc2c1
inhibition at 11.1 µM [1]: 87% (active)
inhibition at 1.1 µM [2]: 38%

COc1ccc(C(=O)C(CCC(CNC(C)(C)C)C(=O)c2ccc(OC)cc2)CNC(C)(C)C)cc1 (stereo unspecified)
inhibition at 11.1 µM [1]: 33%
inhibition at 1.1 µM [2]: 9%

CC(C)CCNCC(O)Cn1c2ccccc2c2ccccc21 (stereo unspecified)
inhibition at 11.1 µM [1]: 61% (active)
inhibition at 1.1 µM [2]: 2%

Cc1c(C)n(Cc2ccc(F)cc2)c2ccc(C(=O)NCc3ccco3)cc12
inhibition at 11.1 µM [1]: 5% (inactive)
inhibition at 1.1 µM [2]: -2%

COc1ccc(C2C(C(=O)Nc3cccc(OC)c3)c3ccccc3C(=O)N2C2CCCCC2)cc1 (stereo unspecified)
inhibition at 11.1 µM [1]: 70% (active)
inhibition at 1.1 µM [2]: 4%

CCN(CC)c1ccc(NC(=O)c2cccs2)cc1
inhibition at 11.1 µM [1]: 1% (inactive)
inhibition at 1.1 µM [2]: -1%

CCOC(=O)c1cnc2ccc(Cl)cc2c1NCCCN(C)C
inhibition at 11.1 µM [1]: 85% (active)
inhibition at 1.1 µM [2]: 21%

CCOc1ccccc1NC(=O)CN1CCN(C(=O)c2ccco2)CC1
inhibition at 11.1 µM [1]: 35%
inhibition at 1.1 µM [2]: 13%

O=C(Nc1ccc(C23CC4CC(CC(c5ccccc5)(C4)C2)C3)cc1)c1cccs1
inhibition at 11.1 µM [1]: 3% (inactive)
inhibition at 1.1 µM [2]: 4%

CN1C=C(c2ccc3ccccc3n2)C(c2c[nH]c3ccccc23)c2ccccc21 (stereo unspecified)
inhibition at 11.1 µM [1]: 89% (active)
inhibition at 1.1 µM [2]: 8%

Cc1ccccc1OCCSc1nc2ccc(NC(=O)c3ccccc3)cc2s1
inhibition at 11.1 µM [1]: 2% (inactive)
inhibition at 1.1 µM [2]: -9%

Cc1ccc(Nc2nc(N)c3ccccc3n2)cc1Cl
inhibition at 11.1 µM [1]: 85% (active)
inhibition at 1.1 µM [2]: 5%

Cc1ccc(Cn2c(N3CCC(C(=O)NCc4cccs4)CC3)nc3ccccc32)cc1
inhibition at 11.1 µM [1]: 103%
inhibition at 1.1 µM [2]: 105%

O=c1nc(C=Cc2ccc(Cl)cc2)oc2ccccc12
inhibition at 11.1 µM [1]: 10% (inactive)
inhibition at 1.1 µM [2]: -5%

O=C(NCc1ccco1)C1CCN(S(=O)(=O)c2ccc(Br)cc2)CC1
inhibition at 11.1 µM [1]: 34%
inhibition at 1.1 µM [2]: 21%

COc1ccc(-c2nc3cc(Cc4ccc5[nH]c(-c6ccc(OC)cc6)nc5c4)ccc3[nH]2)cc1
inhibition at 11.1 µM [1]: -1% (inactive)
inhibition at 1.1 µM [2]: -7%

Cc1ccc2c(C)nc(Nc3nc(C)cc(-c4ccccc4)n3)nc2c1
inhibition at 11.1 µM [1]: 4% (inactive)
inhibition at 1.1 µM [2]: -1%

CCOc1ccc(Nc2ccnc3cc(Cl)ccc23)cc1
inhibition at 11.1 µM [1]: 26%
inhibition at 1.1 µM [2]: 5%

Cc1cc(Nc2ccc(Cl)cc2)n2nc(C(F)(F)F)nc2n1
inhibition at 11.1 µM [1]: 59% (active)
inhibition at 1.1 µM [2]: 19%

COc1ccc(OC)c(C2C3=C(CC(C)(C)CC3=O)N(c3ccc(Cl)c(Cl)c3)C3=C2C(=O)CC(C)(C)C3)c1
inhibition at 11.1 µM [1]: 27%
inhibition at 1.1 µM [2]: 21%

Cc1cccc(N2C(=O)C3C(C2=O)C2(c4ccccc4)C(=O)C3(c3ccccc3)C(c3ccc4c(c3)OCO4)=C2c2ccc3c(c2)OCO3)c1 (stereo unspecified)
inhibition at 11.1 µM [1]: 2% (inactive)
inhibition at 1.1 µM [2]: -14%

COc1ccc(C(C)=O)cc1N1C(=O)C2C(C1=O)C1(c3ccccc3)C(=O)C2(c2ccccc2)C(c2ccc(C)cc2)=C1c1ccc(C)cc1 (stereo unspecified)
inhibition at 11.1 µM [1]: -1% (inactive)
inhibition at 1.1 µM [2]: -5%

COc1ccc(CCNC(=O)c2cc(S(=O)(=O)N3CC(C)CC(C)C3)ccc2Sc2ccc(F)cc2)cc1OC (stereo unspecified)
inhibition at 11.1 µM [1]: 5% (inactive)
inhibition at 1.1 µM [2]: 10%

Cc1ccc(F)cc1NC(=O)c1cc(Cl)ccc1Nc1ccccc1
inhibition at 11.1 µM [1]: 12% (inactive)
inhibition at 1.1 µM [2]: 5%

Oc1c2c(nc3cc(-c4ccccc4)nn13)CCCC2
inhibition at 11.1 µM [1]: -2% (inactive)
inhibition at 1.1 µM [2]: 2%

CCCCc1c(C)nc2c(OC)cccc2c1O
inhibition at 11.1 µM [1]: 4% (inactive)
inhibition at 1.1 µM [2]: -9%

CCCCCCOC(=O)C1=C(C)NC(=O)NC1c1ccccc1F (stereo unspecified)
inhibition at 11.1 µM [1]: 1% (inactive)
inhibition at 1.1 µM [2]: -2%

OC1=C2C(=Nc3ccccc3SC2c2ccc(Br)cc2)c2ccccc21 (stereo unspecified)
inhibition at 11.1 µM [1]: 10% (inactive)
inhibition at 1.1 µM [2]: 3%

Clc1ccc2c(N3CCCC3)ccnc2c1
inhibition at 11.1 µM [1]: 83% (active)
inhibition at 1.1 µM [2]: 38%

COc1cc2c3cc1Oc1c(OC)c(OC)cc4c1C(Cc1ccc(O)c(c1)Oc1ccc(cc1)CC3N(C)CC2)N(C)CC4 (stereo unspecified)
inhibition at 11.1 µM [1]: 69% (active)
inhibition at 1.1 µM [2]: 14%

Cc1ccc(N2C3c4ccccc4N(S(=O)(=O)c4ccc(C)cc4)C2c2ccccc2N3S(=O)(=O)c2ccc(C)cc2)cc1
inhibition at 11.1 µM [1]: 18% (inactive)
inhibition at 1.1 µM [2]: 18%

Cc1ccc(C)c(-c2csc(Nc3ccc(C)c(C)c3)n2)c1
inhibition at 11.1 µM [1]: 100%
inhibition at 1.1 µM [2]: 57%

COc1cc(OC)cc(N2C(=O)N(Cc3ccc(C(C)(C)C)cc3)c3ccccc3S2(=O)=O)c1
inhibition at 11.1 µM [1]: 16% (inactive)
inhibition at 1.1 µM [2]: 10%

CCOc1ccc(CCNC(=O)c2cccs2)cc1OCC
inhibition at 11.1 µM [1]: 13% (inactive)
inhibition at 1.1 µM [2]: 9%

CCCc1c(CC)c(=N)c2ccccc2n1C
inhibition at 11.1 µM [1]: 26%
inhibition at 1.1 µM [2]: 0%

CCCCOc1ccc(C(=O)Nc2cc(C)on2)cc1
inhibition at 11.1 µM [1]: 2% (inactive)
inhibition at 1.1 µM [2]: -2%

COc1ccccc1N1C(=N)SC(=Cc2ccc(OCc3ccccc3F)cc2)C1=O
inhibition at 11.1 µM [1]: 24% (inactive)
inhibition at 1.1 µM [2]: 18%

CCc1ccc(Nc2cc(C)nc3nc(C)nn23)cc1
inhibition at 11.1 µM [1]: 42%
inhibition at 1.1 µM [2]: -2%

CCOC(=O)c1cnc2c(C)cc(C)cc2c1Nc1ccc(OC)c(OC)c1
inhibition at 11.1 µM [1]: 18% (inactive)
inhibition at 1.1 µM [2]: 26%

CCN(CC)S(=O)(=O)c1ccc(-c2csc(Nc3ccc(C)c(C)c3)n2)cc1
inhibition at 11.1 µM [1]: -3% (inactive)
inhibition at 1.1 µM [2]: -7%

CCCn1c(=N)c(C(=O)NC2CCCCC2)cc2c(=O)n3cccc(C)c3nc21
inhibition at 11.1 µM [1]: 105%
inhibition at 1.1 µM [2]: 63%

CCN1CCN(c2c(C(=O)c3ccccc3)cnc3cc(OC)c(OC)cc23)CC1
inhibition at 11.1 µM [1]: 40%
inhibition at 1.1 µM [2]: 36%

C=CCc1c(C)nc2ccccc2c1O
inhibition at 11.1 µM [1]: 11% (inactive)
inhibition at 1.1 µM [2]: 11%

CC(C)(C)c1ccc(C2CC3=Nc4ccccc4N(C(=O)c4ccccc4Cl)C(c4ccc(F)cc4)C3=C(O)C2)cc1 (stereo unspecified)
inhibition at 11.1 µM [1]: 88% (active)
inhibition at 1.1 µM [2]: 30%

CCCCc1c(CCC)c(=N)c2ccccc2n1C
inhibition at 11.1 µM [1]: 74% (active)
inhibition at 1.1 µM [2]: 29%

CCCCN(CCCC)S(=O)(=O)c1ccc(NC(=O)c2ccco2)cc1
inhibition at 11.1 µM [1]: 30%
inhibition at 1.1 µM [2]: 13%

Reference: ChEMBL document CHEMBL3301458, “MMV Malaria Box hERG screening”
